Source: patent US9266908B2, “Inhibitors of arginase and their therapeutic applications” (MARS, INCORPORATED, priority 2011, dated 2016)

Key:
human-Arginase-1 = biological target: T1, human-Arginase-1 (Homo sapiens, UniProt P05089); assay: Urea production in CHOK cells stably transfected with human-Arginase-1; format: cell-based; details: IC50 class, 5 mM arginine, 24 hours, read-out: CHOK Cell
T1 construct: expressed in transfected cells; host or cells: CHOK cells
T1 sequence (P05089 1-322): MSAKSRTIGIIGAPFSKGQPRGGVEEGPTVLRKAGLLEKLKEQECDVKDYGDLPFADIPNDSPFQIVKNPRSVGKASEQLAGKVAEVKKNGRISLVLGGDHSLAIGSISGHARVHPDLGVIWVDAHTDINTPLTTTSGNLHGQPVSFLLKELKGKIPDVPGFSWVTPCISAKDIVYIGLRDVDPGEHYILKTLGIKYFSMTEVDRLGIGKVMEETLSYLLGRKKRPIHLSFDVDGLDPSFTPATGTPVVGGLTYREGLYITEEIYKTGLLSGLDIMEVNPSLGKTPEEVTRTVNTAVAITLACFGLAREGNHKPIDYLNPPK
Protocol: Table 3 also provides CHOK cell based IC50 values for illustrative arginase inhibitors. IC50 values were determined by measuring the production of urea in CHOK cells stably transfected with human-Arginase-1.
Briefly, CHOK cells were stably transfected with human-arginase-1. To determiner the IC50 values for compounds in accordance with the present invention, parental CHOK cells and arginase-1 stably transfected cells were plated in a 96 well plate. Cells were plated using 200 μl of complete growth medium and incubated overnight at 37° C.
Media from each of the wells containing cells was first removed and growth media supplemented with arginine at a concentration of 5 mM was added to each well. The test compounds were dissolved in PBS buffer to the desired concentration and added to appropriate wells. The plate was then incubated at 37° C. for 24 hours. After 24 hours the plates were spun down at 3000 RPM for 5 min and 50 μl of the media were transferred to a new plate.
An aqueous solution of o-phthaldehyde, Brij, sulfuric acid, primaquine diphosphate and boric acid was added to each well and the plate was incubated for 10-15 minutes. The urea concentration in each well was determined by measuring the optical density at 520-530 nanometers using a standard curve. The IC50 values were calculated by measuring urea production at various concentrations of the inventive arginase inhibitors after subtracting the value related to the concentration of urea in control wells.

human arginase I (ARG I) = biological target: T2, human arginase I (ARG I) (Homo sapiens, UniProt P05089); assay: Inhibition of arginase I, spectrophotometric urea assay at 530 nm
T2 sequence (P05089 1-322): T1 sequence (P05089 1-322)
Protocol: (§1) Inhibition of arginase I (ARG I) and arginase II (ARG II) by the inventive compounds is followed spectrophotometrically at 530 nm. […] Solutions of arginase I and II are prepared in 100 mM sodium phosphate buffer, pH 7.4 containing 1 mg/ml of OVA to give an arginase stock solution at a final concentration of 100 ng/ml.
(§2) To each well of a 96-well microtiter plate is add 40 μl of enzyme, 10 μl of an inventive compound and 10 μl of enzyme substrate (L-arginine+ manganese sulfate). For wells that are used as positive controls, only the enzyme and its substrate are added, while wells used as negative controls contain only manganese sulfate.
(§3) After incubating the microtiter plate at 37° C. for 60 minutes, 150 μl of a urea reagent obtained by combining equal proportions (1:1) of reagents A and B is added to each well of the microtiter plate to stop the reaction. The urea reagent is made just before use by combining Reagent A (10 mM o-phthaldialdehyde, and 0.4% polyoxyethylene (23) lauryl ether (w/v) in 1.8 M sulfuric acid) with Reagent B (1.3 mM primaquine diphosphate, 0.4% polyoxyethylene (23) lauryl ether (w/v), 130 mM boric acid in 3.6 M sulfuric acid). After quenching the reaction mixture, the microtiter plate is allowed to stand for an additional 10 minutes at room temperature to allow color development. […] The normalized OD is then used to generate a dose-response curve by plotting the normalized OD values against log [concentration] and using regression analysis to compute the IC50 values.

arginase II (ARG II) = biological target: T3, arginase II (ARG II) (Homo sapiens, UniProt P78540); assay: Inhibition of arginase II, spectrophotometric urea assay at 530 nm
T3 sequence (P78540 23-354): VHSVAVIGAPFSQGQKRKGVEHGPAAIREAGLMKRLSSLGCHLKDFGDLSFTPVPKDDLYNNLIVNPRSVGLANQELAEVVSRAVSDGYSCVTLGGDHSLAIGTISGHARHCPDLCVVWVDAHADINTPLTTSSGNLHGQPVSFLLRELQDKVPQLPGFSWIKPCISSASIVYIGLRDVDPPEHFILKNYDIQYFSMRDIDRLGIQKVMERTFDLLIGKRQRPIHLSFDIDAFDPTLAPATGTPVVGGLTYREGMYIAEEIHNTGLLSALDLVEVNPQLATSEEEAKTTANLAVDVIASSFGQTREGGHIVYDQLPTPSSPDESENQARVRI
Protocol: as §1, §2, §3

| IC50 (human-Arginase-1) | IC50 (human arginase I (ARG I)) | IC50 (arginase II (ARG II)) | Structure (SMILES) |
| --- | --- | --- | --- |
| 26000 to 100000 nM | 26 to 100 nM | 0.1 to 25 nM | NC(CCCCB(O)O)(C(=O)O)[C@H]1C[C@@H](NC2CCC(c3ccccc3)CC2)C1 (mixture of isomers) [Example 47, (S)-2-amino-6-borono-2-((1s,3R)-3-(4-phenylcyclohexylamino)cyclobutyl)hexanoic acid] |
| 26000 to 100000 nM | 26 to 100 nM | 0.1 to 25 nM | NC(CCCCB(O)O)(C(=O)O)[C@H]1C[C@@H](NCc2cccc(-c3ccccc3)c2F)C1 (mixture of isomers) [Example 48, (S)-2-amino-6-borono-2-((1s,3R)-3-((2-fluorobiphenyl-3-yl)methylamino)cyclobutyl)hexanoic acid] |
| 1000 to 25000 nM | 0.1 to 25 nM | 26 to 100 nM | NC(CCCCB(O)O)(C(=O)O)[C@H]1C[C@@H](NCc2ccc(-c3ccc(Cl)cc3)c(F)c2F)C1 (mixture of isomers) [Example 50, (S)-2-amino-6-borono-2-((1s,3R)-3-((4′-chloro-2,3-difluorobiphenyl-4-yl)methylamino)cyclobutyl)hexanoic acid] |
| 26000 to 100000 nM | 26 to 100 nM | 0.1 to 25 nM | NC(CCCCB(O)O)(C(=O)O)[C@H]1C[C@@H](NCc2ccc(-c3ccc(Cl)cc3)c(F)c2)C1 (mixture of isomers) [Example 51, (S)-2-amino-6-borono-2-((1s,3R)-3-((4′-chloro-2-fluorobiphenyl-4-yl)methylamino)cyclobutyl)hexanoic acid] |
|  | 26 to 100 nM | 26 to 100 nM | NC(CCCCB(O)O)(C(=O)O)[C@H]1C[C@@H](NCC2CCN(c3ccc(C(=O)O)cc3)CC2)C1 (mixture of isomers) [Example 59, 4-(4-(((1R,3s)-3-((S)-1-amino-5-borono-1-carboxypentyl)cyclobutylamino)methyl)piperidin-1-yl)benzoic acid] |
|  | > 1500 nM | > 1500 nM | NC(CCCCB(O)O)(C(=O)O)[C@H]1C[C@H](N(Cc2ccccc2)Cc2ccccc2)C1 (relative stereo) [Example 28, (S)-2-amino-6-borono-2-((1r,3S)-3-(dibenzylamino)cyclobutyl)hexanoic acid] |
|  |  | 26 to 100 nM | NC(CCCCB(O)O)(C(=O)O)[C@H]1C[C@@H](NCCCc2ccccc2)C1 (stereo partly drawn) [Example 1, (S)-2-amino-6-borono-2-((1s,3R)-3-(3-phenylpropylamino)cyclobutyl) hexanoic acid] |
|  | 26 to 100 nM | 0.1 to 25 nM | NC(CCCCB(O)O)(C(=O)O)[C@H]1C[C@@H](NCCCc2cc(F)cc(Cl)c2)C1 (stereo partly drawn) [Example 2, (S)-2-amino-6-borono-2-((1s,3R)-3-(3-(3-chloro-5-fluorophenyl)propylamino)cyclobutyl)hexanoic acid] |
|  | 26 to 100 nM | 26 to 100 nM | NC(CCCCB(O)O)(C(=O)O)[C@H]1C[C@@H](NCCc2ccc(F)c(F)c2)C1 (stereo partly drawn) [Example 3, (S)-2-amino-6-borono-2-((1s,3R)-3-(3,4-difluorophenethylamino)cyclobutyl)hexanoic acid] |
|  | 26 to 100 nM | 26 to 100 nM | NC(CCCCB(O)O)(C(=O)O)[C@H]1C[C@@H](NCCc2ccc(Cl)cc2Cl)C1 (stereo partly drawn) [Example 4, (S)-2-amino-6-borono-2-((1s,3R)-3-(2,4-dichlorophenethylamino)cyclobutyl)hexanoic acid] |
|  | 26 to 100 nM | 26 to 100 nM | NC(CCCCB(O)O)(C(=O)O)[C@H]1C[C@@H](NCc2cccc(-c3ccccc3)c2)C1 (stereo partly drawn) [Example 7, (S)-2-amino-2-((1s,3R)-3-(biphenyl-3-ylmethylamino)cyclobutyl)-6-boronohexanoic acid] |
|  | 26 to 100 nM | 26 to 100 nM | NC(CCCCB(O)O)(C(=O)O)[C@H]1C[C@@H](NC[C@@H]2Cc3ccccc3CN2)C1 (stereo partly drawn) [Example 14, (S)-2-amino-6-borono-2-((1R,3R)-3-(((S)-1,2,3,4-tetrahydroisoquinolin-3-yl)methylamino)cyclobutyl)hexanoic acid] |
|  | 26 to 100 nM | 26 to 100 nM | NC(CCCCB(O)O)(C(=O)O)[C@H]1C[C@@H](NCc2ccc(O)cc2)C1 (stereo partly drawn) [Example 20, (S)-2-amino-6-borono-2-((1s,3R)-3-(4-hydroxybenzylamino)cyclobutyl)hexanoic acid] |
|  | 101 to 500 nM | 101 to 500 nM | NC(CCCCB(O)O)(C(=O)O)[C@H]1C[C@@H](N2Cc3ccccc3C2)C1 (stereo partly drawn) [Example 29, 2-amino-6-borono-2-((1s,3R)-3-(isoindolin-2-yl)cyclobutyl)hexanoic acid] |
|  | 101 to 500 nM | 101 to 500 nM | CNC(CCCCB(O)O)(CCN1CCc2c(Cl)cccc2C1)C(=O)O (stereo not shown) [Example 31, 6-borono-2-(2-(5-chloro-3,4-dihydroisoquinolin-2(1H)-yl)ethyl)-2-(methylamino)hexanoic acid] |
|  | 101 to 500 nM | 101 to 500 nM | CNC(CCCCB(O)O)(CCN1CCc2ccccc2C1)C(=O)O (stereo not shown) [Example 32, 6-borono-2-(2-(3,4-dihydroisoquinolin-2(1H)-yl)ethyl)-2-(methylamino)hexanoic acid] |
|  | 101 to 500 nM | 101 to 500 nM | CNC(CCCCB(O)O)(CCN1CCC(C)(C)CC1)C(=O)O (stereo not shown) [Example 34, 6-borono-2-(2-(4,4-dimethylpiperidin-1-yl)ethyl)-2-(methylamino)hexanoic acid] |
|  | 101 to 500 nM | 101 to 500 nM | CNC(CCCCB(O)O)(CCN1CCC(c2ccc(Cl)cc2)CC1)C(=O)O (stereo not shown) [Example 37, 6-borono-2-(2-(4-(4-chlorophenyl)piperidin-1-yl)ethyl)-2-(methylamino)hexanoic acid] |
|  | 101 to 500 nM | 101 to 500 nM | NC(CCCCB(O)O)(CCCN1CCCC1)C(=O)O (stereo not shown) [Example 38, 2-amino-6-borono-2-(3-(pyrrolidin-1-yl)propyl)hexanoic acid] |
|  | 26 to 100 nM | 26 to 100 nM | NC(CCCCB(O)O)(C(=O)O)[C@@H]1CC[C@H](NCc2ccc(-c3ccccc3)cc2)C1 (stereo partly shown) [Example 42] |
|  | 26 to 100 nM | 0.1 to 25 nM | NC(CCCCB(O)O)(C(=O)O)[C@H]1C[C@@H](NCCc2ccc(-c3ccccc3)cc2)C1 (stereo partly drawn) [Example 65, (S)-2-amino-2-((1s,3R)-3-(2-(biphenyl-4-yl)ethylamino)cyclobutyl)-6-boronohexanoic acid] |
|  | 101 to 500 nM | 101 to 500 nM | N[C@](CCCCB(O)O)(CCNC1Cc2ccccc2C1)C(=O)O [Example 66, (R)-2-amino-6-borono-2-(2-(2,3-dihydro-1H-inden-2-ylamino)ethyl)hexanoic acid] |
|  | 101 to 500 nM | 101 to 500 nM | CCCN(C)CC[C@](N)(CCCCB(O)O)C(=O)O [Example 69, (R)-2-amino-6-borono-2-(2-(methyl(propyl)amino)ethyl)hexanoic acid] |
|  | 26 to 100 nM | 101 to 500 nM | CC(C)NCC[C@](N)(CCCCB(O)O)C(=O)O [Example 70, (R)-2-amino-6-borono-2-(2-(isopropylamino)ethyl)hexanoic acid] |
|  | 101 to 500 nM | 101 to 500 nM | CC(C)CNCC[C@](N)(CCCCB(O)O)C(=O)O [Example 71, (R)-2-amino-6-borono-2-(2-(isobutylamino)ethyl)hexanoic acid] |
|  | 101 to 500 nM | 501 to 1500 nM | N[C@](CCCCB(O)O)(CCN1Cc2ccccc2C1)C(=O)O [Example 72, (R)-2-amino-6-borono-2-(2-(isoindolin-2-yl)ethyl)hexanoic acid] |
|  | 501 to 1500 nM | 101 to 500 nM | NC1(c2ccc(Cl)cc2)CC(C(N)(CCCCB(O)O)C(=O)O)C1 (stereo not shown) [Example 73, 2-amino-2-(3-amino-3-(4-chlorophenyl)cyclobutyl)-6-boronohexanoic acid] |
|  | 101 to 500 nM | 101 to 500 nM | NC1(Cc2ccc(Cl)cc2)CC(C(N)(CCCCB(O)O)C(=O)O)C1 (stereo not shown) [Example 74, 2-amino-2-(3-amino-3-(4-chlorobenzyl)cyclobutyl)-6-boronohexanoic acid] |
|  | 101 to 500 nM | 101 to 500 nM | CNC(CCCCB(O)O)(C(=O)O)[C@H]1C[C@@H](N)C1 (stereo partly drawn) [Example 75, (S)-2-((1s,3R)-3-aminocyclobutyl)-6-borono-2-(methylamino)hexanoic acid] |
